Assay results taken from US8927500B2, “Peptidomimetic macrocycles” (Aileron Therapeutics, Inc., priority 2012, dated 2015).
Where a SMILES comes first, the peptide text is derived from it. Bridges are numbered along the chain shown (N, C = ends). [ ]: non-standard residue; d: D form. R8 = C=CCCCCCC[C@@](C)(N)C(=O)O; Cba = N[C@@H](CC1CCC1)C(=O)O; S5 = C=CCCC[C@](C)(N)C(=O)O; Nle = CCCC[C@H](N)C(=O)O

Legend:
MDMX = molecular target: T1, MDMX (Homo sapiens, UniProt O15151); assay: Competitive fluorescence polarization assay for MDMX; format: binding; conditions: competitive FP assay; for IC50: read-out: IC50 (MDMX); for Ki: read-out: Ki (MDMX)
T1 sequence (O15151 1-125): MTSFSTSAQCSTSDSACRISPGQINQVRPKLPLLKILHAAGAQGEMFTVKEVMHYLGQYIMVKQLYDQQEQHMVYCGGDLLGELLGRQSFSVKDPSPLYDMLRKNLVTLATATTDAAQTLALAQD

MDM2 = MDM2 (Homo sapiens, UniProt Q00987); assay: Competitive fluorescence polarization assay for MDM2; format: binding; conditions: competitive FP assay, MDM2; for IC50: read-out: IC50 (MDM2); for Ki: read-out: Ki (MDM2)
MDM2, sequence (Q00987 1-125): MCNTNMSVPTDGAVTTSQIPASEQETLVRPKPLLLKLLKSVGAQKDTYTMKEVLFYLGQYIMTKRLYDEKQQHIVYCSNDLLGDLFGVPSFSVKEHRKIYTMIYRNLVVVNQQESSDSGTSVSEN

## CC(=O)N[C@@H](CCC(=O)O)C(=O)N[C@H](C(=O)N[C@@H](Cc1ccccc1)C(=O)N[C@]1(C)CCCCCCC=CCCC[C@@](C)(C(=O)N[C@@H](CO)C(=O)N[C@@H](Cc2c[nH]c3ccccc23)C(=O)N[C@@H](C)C(N)=O)NC(=O)[C@H](CC(C)C)NC(=O)[C@H](CCC(N)=O)NC(=O)[C@H](C)NC(=O)[C@H](Cc2c[nH]c3ccccc23)NC(=O)[C@H](Cc2ccc(O)cc2)NC(=O)[C@H](C(C)C)NC1=O)[C@@H](C)O [compound 128] (Ac-ETF[R8]VYWAQL[S5]SWA-NH2; staple 4-11)
MDMX
  IC50: 100 to 1000 nM
  Ki: 10 to 100 nM
MDM2
  IC50: < 10 nM
  Ki: < 10 nM

## CC(=O)N[C@@H](CCC(=O)O)C(=O)N[C@H](C(=O)N[C@@H](Cc1ccccc1)C(=O)N[C@]1(C)CCCCCCC=CCCC[C@@](C)(C(=O)N[C@@H](CO)C(=O)N[C@@H](Cc2c[nH]c3ccccc23)C(=O)N[C@@H](C)C(N)=O)NC(=O)[C@H](CC(C)C)NC(=O)[C@H](CCC(N)=O)NC(=O)[C@H](C)NC(=O)[C@H](Cc2c[nH]c3ccccc23)NC(=O)[C@H](Cc2ccc(O)cc2)NC(=O)[C@H](CCCCN)NC1=O)[C@@H](C)O [compound 129] (Ac-ETF[R8]KYWAQL[S5]SWA-NH2; staple 4-11)
MDMX
  IC50: 100 to 1000 nM
  Ki: 10 to 100 nM
MDM2
  IC50: < 10 nM
  Ki: < 10 nM

## CC(=O)N[C@@H](CC(C)C)C(=O)N[C@H](C(=O)N[C@@H](Cc1ccccc1)C(=O)N[C@]1(C)CCCCCCC=CCCC[C@@](C)(C(=O)N[C@@H](CO)C(=O)N[C@@H](CO)C(=O)N[C@H](C)C(N)=O)NC(=O)[C@H](CC(C)C)NC(=O)[C@H](CCC(N)=O)NC(=O)[C@H](C)NC(=O)[C@H](Cc2c[nH]c3ccccc23)NC(=O)[C@H](Cc2ccc(O)cc2)NC(=O)[C@H](C(C)C)NC1=O)[C@@H](C)O [compound 133] (Ac-LTF[R8]VYWAQL[S5]SS[dA]-NH2; staple 4-11)
MDMX
  IC50: 100 to 1000 nM
  Ki: 10 to 100 nM
MDM2
  IC50: < 10 nM
  Ki: < 10 nM

## CC(=O)N[C@@H](CCC(=O)O)C(=O)N[C@H](C(=O)N[C@@H](Cc1ccccc1)C(=O)N[C@]1(C)CCCCCCC=CCCC[C@@](C)(C(=O)N[C@@H](CO)C(=O)N[C@@H](CO)C(=O)N[C@H](C)C(N)=O)NC(=O)[C@H](CC(C)C)NC(=O)[C@H](CCC(N)=O)NC(=O)[C@H](C)NC(=O)[C@H](Cc2c[nH]c3ccccc23)NC(=O)[C@H](Cc2ccc(O)cc2)NC(=O)[C@H](C(C)C)NC1=O)[C@@H](C)O [compound 134] (Ac-ETF[R8]VYWAQL[S5]SS[dA]-NH2; staple 4-11)
MDMX
  IC50: 100 to 1000 nM
  Ki: 10 to 100 nM
MDM2
  IC50: < 10 nM
  Ki: < 10 nM

## CC(=O)N[C@@H](CC(C)C)C(=O)N[C@H](C(=O)N[C@@H](Cc1ccccc1)C(=O)N[C@]1(C)CCCCCCC=CCCC[C@@](C)(C(=O)N[C@@H](CO)C(=O)N[C@@H](CC(N)=O)C(=O)N[C@H](C)C(N)=O)NC(=O)[C@H](CC(C)C)NC(=O)[C@H](CCC(N)=O)NC(=O)[C@H](C)NC(=O)[C@H](Cc2c[nH]c3ccccc23)NC(=O)[C@H](Cc2ccc(O)cc2)NC(=O)[C@H](C(C)C)NC1=O)[C@@H](C)O [compound 135] (Ac-LTF[R8]VYWAQL[S5]SN[dA]-NH2; staple 4-11)
MDMX
  IC50: 100 to 1000 nM
  Ki: 10 to 100 nM
MDM2
  IC50: < 10 nM
  Ki: < 10 nM

## CC(=O)N[C@@H](CCC(=O)O)C(=O)N[C@H](C(=O)N[C@@H](Cc1ccccc1)C(=O)N[C@]1(C)CCCCCCC=CCCC[C@@](C)(C(=O)N[C@@H](CO)C(=O)N[C@@H](CC(N)=O)C(=O)N[C@H](C)C(N)=O)NC(=O)[C@H](CC(C)C)NC(=O)[C@H](CCC(N)=O)NC(=O)[C@H](C)NC(=O)[C@H](Cc2c[nH]c3ccccc23)NC(=O)[C@H](Cc2ccc(O)cc2)NC(=O)[C@H](C(C)C)NC1=O)[C@@H](C)O [compound 136] (Ac-ETF[R8]VYWAQL[S5]SN[dA]-NH2; staple 4-11)
MDMX
  IC50: 100 to 1000 nM
  Ki: 10 to 100 nM
MDM2
  IC50: < 10 nM
  Ki: < 10 nM

## CC[C@H](C)[C@H](NC(=O)[C@H](C)NC(=O)[C@H](C)NC(=O)[C@]1(C)CCCC=CCCCCCC[C@@](C)(NC(=O)[C@H](Cc2ccccc2)NC(=O)[C@@H](NC(=O)[C@H](CC(C)C)NC(C)=O)[C@@H](C)O)C(=O)N[C@@H](C)C(=O)N[C@@H](CCC(=O)O)C(=O)N[C@@H](Cc2c[nH]c3ccccc23)C(=O)N[C@@H](C)C(=O)N[C@@H](CCC(N)=O)C(=O)N[C@@H](CC(C)C)C(=O)N1)C(=O)N[C@H](C)C(N)=O [compound 180] (Ac-LTF[R8]AEWAQL[S5]AAI[dA]-NH2; staple 4-11)
MDMX
  IC50: 100 to 1000 nM
  Ki: 10 to 100 nM
MDM2
  IC50: 10 to 100 nM
  Ki: < 10 nM

## CC[C@H](C)[C@H](NC(C)=O)C(=O)N[C@H](C(=O)N[C@@H](Cc1ccccc1)C(=O)N[C@]1(C)CCCCCCC=CCCC[C@@](C)(C(=O)N[C@@H](C)C(=O)N[C@@H](CCC(=O)O)C(=O)N[C@@H](Cc2ccccc2)C(=O)N[C@@H](C)C(N)=O)NC(=O)[C@H](CC(C)C)NC(=O)[C@H](CCC(N)=O)NC(=O)[C@H](C)NC(=O)[C@H](Cc2c[nH]c3ccccc23)NC(=O)[C@H](Cc2c[nH]cn2)NC(=O)[C@H](Cc2ccccc2)NC1=O)[C@@H](C)O [compound 186] (Ac-ITF[R8]FHWAQL[S5]AEFA-NH2; staple 4-11)
MDMX
  IC50: 100 to 1000 nM
  Ki: 10 to 100 nM
MDM2
  IC50: 10 to 100 nM
  Ki: < 10 nM

## CC[C@H](C)[C@H](NC(C)=O)C(=O)N[C@H](C(=O)N[C@@H](Cc1ccccc1)C(=O)N[C@]1(C)CCCCCCC=CCCC[C@@](C)(C(=O)N[C@@H](C)C(=O)N[C@@H](Cc2c[nH]cn2)C(=O)N[C@@H](Cc2ccccc2)C(=O)N[C@@H](C)C(N)=O)NC(=O)[C@H](CC(C)C)NC(=O)[C@H](CCC(N)=O)NC(=O)[C@H](C(C)C)NC(=O)[C@H](Cc2c[nH]c3ccccc23)NC(=O)[C@H](Cc2ccc(O)cc2)NC(=O)[C@H](CCC(=O)O)NC1=O)[C@@H](C)O [compound 192] (Ac-ITF[R8]EYWVQL[S5]AHFA-NH2; staple 4-11)
MDMX
  IC50: 100 to 1000 nM
  Ki: 10 to 100 nM
MDM2
  IC50: 10 to 100 nM
  Ki: < 10 nM

## CC[C@H](C)[C@H](NC(=O)[C@H](Cc1c[nH]cn1)NC(=O)[C@H](C)NC(=O)[C@]1(C)CCCC=CCCCCCC[C@@](C)(NC(=O)[C@H](Cc2ccccc2)NC(=O)[C@@H](NC(=O)[C@H](CC(C)C)NC(C)=O)[C@@H](C)O)C(=O)N[C@@H](C)C(=O)N[C@@H](Cc2c[nH]cn2)C(=O)N[C@@H](Cc2c[nH]c3ccccc23)C(=O)N[C@@H](C)C(=O)N[C@@H](CCC(N)=O)C(=O)N[C@@H](CC(C)C)C(=O)N1)C(=O)N[C@H](C)C(N)=O [compound 207] (Ac-LTF[R8]AHWAQL[S5]AHI[dA]-NH2; staple 4-11)
MDMX
  IC50: 100 to 1000 nM
  Ki: 10 to 100 nM
MDM2
  IC50: < 10 nM
  Ki: < 10 nM

## CCCC[C@H](NC(=O)[C@H](C)NC(=O)[C@H](C)NC(=O)[C@]1(C)CCCC=CCCCCCC[C@@](C)(NC(=O)[C@H](Cc2ccccc2)NC(=O)[C@@H](NC(=O)[C@H](CC(C)C)NC(C)=O)[C@@H](C)O)C(=O)N[C@@H](C)C(=O)N[C@@H](Cc2ccc(O)cc2)C(=O)N[C@@H](Cc2c[nH]c3ccccc23)C(=O)N[C@@H](C)C(=O)N[C@@H](CCC(N)=O)C(=O)N[C@@H](CC2CCC2)C(=O)N1)C(=O)N[C@@H](C)C(N)=O [compound 236] (Ac-LTF[R8]AYWAQ[Cba][S5]AA[Nle]A-NH2; staple 4-11)
MDMX
  IC50: 100 to 1000 nM
  Ki: 10 to 100 nM
MDM2
  IC50: 10 to 100 nM
  Ki: < 10 nM

## CCCC[C@H](NC(=O)[C@H](Cc1c[nH]c2ccccc12)NC(=O)[C@H](C)NC(=O)[C@]1(C)CCCC=CCCCCCC[C@@](C)(NC(=O)[C@H](Cc2ccccc2)NC(=O)[C@@H](NC(=O)[C@H](CC(C)C)NC(C)=O)[C@@H](C)O)C(=O)N[C@@H](C)C(=O)N[C@@H](Cc2ccc(O)cc2)C(=O)N[C@@H](Cc2c[nH]c3ccccc23)C(=O)N[C@@H](C)C(=O)N[C@@H](CCC(N)=O)C(=O)N[C@@H](CC2CCC2)C(=O)N1)C(=O)N[C@@H](C)C(N)=O [compound 239] (Ac-LTF[R8]AYWAQ[Cba][S5]AW[Nle]A-NH2; staple 4-11)
MDMX
  IC50: 100 to 1000 nM
  Ki: 10 to 100 nM
MDM2
  IC50: 10 to 100 nM
  Ki: 10 to 100 nM

## CCCC[C@H](NC(=O)[C@H](Cc1c[nH]c2ccccc12)NC(=O)[C@H](C)NC(=O)[C@]1(C)CCCC=CCCCCCC[C@@](C)(NC(=O)[C@H](Cc2ccccc2)NC(=O)[C@@H](NC(=O)[C@H](CCC(=O)O)NC(C)=O)[C@@H](C)O)C(=O)N[C@@H](C)C(=O)N[C@@H](Cc2ccc(O)cc2)C(=O)N[C@@H](Cc2c[nH]c3ccccc23)C(=O)N[C@@H](C)C(=O)N[C@@H](CCC(N)=O)C(=O)N[C@@H](CC2CCC2)C(=O)N1)C(=O)N[C@@H](C)C(N)=O [compound 240] (Ac-ETF[R8]AYWAQ[Cba][S5]AW[Nle]A-NH2; staple 4-11)
MDMX
  IC50: 100 to 1000 nM
  Ki: 10 to 100 nM
MDM2
  IC50: 10 to 100 nM
  Ki: < 10 nM

## CCCC[C@H](NC(=O)[C@H](Cc1c[nH]c2ccccc12)NC(=O)[C@H](C)NC(=O)[C@]1(C)CCCC=CCCCCCC[C@@](C)(NC(=O)[C@H](Cc2ccccc2)NC(=O)[C@@H](NC(=O)[C@H](CC(C)C)NC(C)=O)[C@@H](C)O)C(=O)N[C@@H](CCC(=O)O)C(=O)N[C@@H](Cc2ccc(O)cc2)C(=O)N[C@@H](Cc2c[nH]c3ccccc23)C(=O)N[C@@H](C)C(=O)N[C@@H](CCC(N)=O)C(=O)N[C@@H](CC2CCC2)C(=O)N1)C(=O)N[C@@H](C)C(N)=O [compound 241] (Ac-LTF[R8]EYWAQ[Cba][S5]AW[Nle]A-NH2; staple 4-11)
MDMX
  IC50: 100 to 1000 nM
  Ki: 10 to 100 nM
MDM2
  IC50: 10 to 100 nM
  Ki: < 10 nM

## CCCC[C@H](NC(=O)[C@H](C)NC(=O)[C@H](CO)NC(=O)[C@]1(C)CCCC=CCCCCCC[C@@](C)(NC(=O)[C@H](Cc2ccccc2)NC(=O)[C@@H](NC(=O)[C@H](CC(C)C)NC(C)=O)[C@@H](C)O)C(=O)N[C@@H](CCC(=O)O)C(=O)N[C@@H](Cc2ccc(O)cc2)C(=O)N[C@@H](Cc2c[nH]c3ccccc23)C(=O)N[C@@H](Cc2c[nH]c3ccccc23)C(=O)N[C@@H](CCC(N)=O)C(=O)N[C@@H](CC2CCC2)C(=O)N1)C(=O)N[C@@H](C)C(N)=O [compound 246] (Ac-LTF[R8]EYWWQ[Cba][S5]SA[Nle]A-NH2; staple 4-11)
MDMX
  IC50: 100 to 1000 nM
  Ki: 10 to 100 nM
MDM2
  IC50: 10 to 100 nM
  Ki: < 10 nM
